Reference: patent US10196363B2, “Dihydropyrimidin-2-one compounds and medical use thereof” (JAPAN TOBACCO INC., priority 2014, dated 2019)
Read-outs that look alike come from different tables or passages of the source.

How the values were obtained:
human RORγ = biological target: T1, human RORγ (Homo sapiens, UniProt P51449); assay: In vitro assay of inhibitory effect against RORγ transcriptional activity (GAL4-hRORγ LBD luciferase reporter gene assay in CHO cells); format: cell-based; conditions: for hRORγ luciferase activity, %-of-control: value in parentheses beside the > EC50 bound, vehicle-control 0.2% DMSO alone = 100%
T1 construct: human RORγ, from Ser253 to Lys518; expressed in transfected cells; host or cells: CHO cells (Chinese hamster ovary), transient co-transfection with pG5-Luc
T1 sequence (P51449 253-518): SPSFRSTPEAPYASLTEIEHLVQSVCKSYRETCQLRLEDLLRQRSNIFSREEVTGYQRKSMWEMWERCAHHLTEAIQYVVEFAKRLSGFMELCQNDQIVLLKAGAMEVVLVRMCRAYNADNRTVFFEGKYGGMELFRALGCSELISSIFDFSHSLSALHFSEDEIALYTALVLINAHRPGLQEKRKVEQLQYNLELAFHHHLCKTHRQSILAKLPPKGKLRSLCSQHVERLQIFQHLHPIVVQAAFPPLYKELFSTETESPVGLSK
Procedure, shortened: (§1)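 CHO cells were transiently co-transfected with a GAL4-DBD fusion of the human (Ser253–Lys518) or mouse (Ile251–Lys516) RORγ LBD plus a GAL4-luciferase reporter. Cells were treated with 8 compound concentrations (0.2% DMSO) for 2 days at 37 °C. Luciferase was expressed as %-of-vehicle control, EC50 was curve-fitted, and cytotoxic concentrations were excluded.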

mouse RORγ = biological target: T2, mouse RORγ (Mus musculus, UniProt P51450); assay: In vitro assay of inhibitory effect against RORγ transcriptional activity (GAL4-mRORγ LBD luciferase reporter gene assay in CHO cells); format: cell-based; conditions: for mRORγ luciferase activity, %-of-control: value in parentheses beside the > EC50 bound, vehicle-control 0.2% DMSO alone = 100%
T2 construct: mouse RORγ, from Ile251 to Lys516; expressed in transfected cells; host or cells: CHO cells (Chinese hamster ovary), transient co-transfection with pG5-Luc
T2 sequence (P51450 251-516): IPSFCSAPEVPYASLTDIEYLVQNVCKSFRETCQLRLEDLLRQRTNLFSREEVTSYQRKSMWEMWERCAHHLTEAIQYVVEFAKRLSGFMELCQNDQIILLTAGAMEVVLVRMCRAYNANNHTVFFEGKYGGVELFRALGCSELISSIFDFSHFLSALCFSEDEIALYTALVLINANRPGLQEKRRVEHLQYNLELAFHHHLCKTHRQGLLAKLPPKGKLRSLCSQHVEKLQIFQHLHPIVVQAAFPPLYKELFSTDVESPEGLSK
Procedure, shortened: as §1

[1] = GAL4-hRORγ LBD / pG5-Luc in CHO cells, 2 days incubation
[2] = GAL4-mRORγ LBD / pG5-Luc in CHO cells, 2 days incubation
[3] = GAL4-hRORγ LBD luciferase reporter, CHO cells, read-out: LUC EC50 hRORγ
[4] = GAL4-mRORγ LBD luciferase reporter, CHO cells, read-out: LUC EC50 mRORγ

Structure (SMILES) | EC50 (human RORγ; [1]) | EC50 (mouse RORγ; [2]) | EC50 (human RORγ; [3]) | EC50 (mouse RORγ; [4]) | hRORγ luciferase activity, %-of-control (human RORγ) | mRORγ luciferase activity, %-of-control (mouse RORγ)
CC(C)C1=CN(CCC(=O)O)C(=O)N[C@@]1(C)c1ccc(CCC(C)(C)C)c(Cl)c1 [Example 87, 3-{(S)-4-[3-Chloro-4-(3,3-dimethyl-butyl)-phenyl]-5-isopropyl-4-methyl-2-oxo-3,4-dihydro-2H-pyrimidin-1-yl}-propionic Acid] | 0.011 µM | 0.015 µM |  |  |  | 
CC(C)C1=CN([C@H]2C[C@H](C(=O)O)C2)C(=O)N[C@@]1(C)c1ccc(CCC(C)(C)C)c(Cl)c1 [Example 42] | 0.031 µM | 0.028 µM |  |  |  | 
CC(C)C1=CN(CCc2ccc(C(=O)O)cc2)C(=O)N[C@]1(C)c1ccc(CCC(C)(C)C)c(Cl)c1 [Example 49] | 0.983 µM | 0.832 µM |  |  |  | 
CC(C)C1=CN([C@H]2C[C@H](C(=O)O)C2)C(=O)N[C@@]1(C)c1cc(Cl)c(CCC(C)(C)C)cc1F [Example 104] | 0.05 µM | 0.031 µM |  |  |  | 
CCOC(=O)c1ccc(C2(C)NC(=O)N(CCC(=O)O)C=C2C(C)C)cc1Cl (racemic) [Example 114] | 14.9 µM | 11 µM |  |  |  | 
CC(C)C1=CN(C2CCC(C(=O)O)C2)C(=O)N[C@]1(C)c1ccc(CCC(C)(C)C)c(Cl)c1 (single isomer, unassigned) [Example 63] | > 8 µM | > 8 µM |  |  | (51%) | (70%)
CC(C)C1=CN(CCCC(C)(C)C(=O)O)C(=O)N[C@@]1(C)c1ccc(CCC(C)(C)C)c(Cl)c1 [Example 75] | 0.296 µM | 0.316 µM |  |  |  | 
CC(C)C1=CN(CCC(=O)O)C(=O)N[C@@]1(C)c1ccc(C2CCCCC2)c(Cl)c1 [Example 136] | 0.094 µM | 0.049 µM |  |  |  | 
CC(C)CCC1=CN(CCCC(=O)O)C(=O)N[C@]1(C)c1ccc(CCC(C)(C)C)c(Cl)c1 [Example 43] | 0.564 µM | 0.835 µM |  |  |  | 
CC(C)C1=CN(CCC(=O)O)C(=O)N[C@]1(C)c1ccc(C2CCC2)c(Cl)c1 [Example 152] | > 20 µM | > 20 µM |  |  | (56%) | (57%)
CC(C)C1=CN([C@H]2C[C@@H](C(=O)O)C2)C(=O)N[C@]1(C)c1ccc(CCC(C)(C)C)c(Cl)c1 [Example 45] | 7.33 µM | 7.51 µM |  |  |  | 

More lines, now with the values ahead:

EC50 (human RORγ; [1]) | EC50 (mouse RORγ; [2]) | EC50 (human RORγ; [3]) | EC50 (mouse RORγ; [4]) | hRORγ luciferase activity, %-of-control (human RORγ) | mRORγ luciferase activity, %-of-control (mouse RORγ) | Structure (SMILES)
0.018 µM | 0.032 µM |  |  |  |  | COC(=O)[C@H]1C[C@H](N2C=C(C(C)(C)CCC(=O)O)C(C)(c3ccc(CCC(C)(C)C)c(Cl)c3)NC2=O)C1 (single isomer, unassigned) [Example 181]
 |  | 0.037 µM | 0.071 µM |  |  | CC(C)(C)CCc1ccc([C@]2(C)NC(=O)N(CCC(=O)O)C=C2c2ccccc2)cc1Cl [Example 265]
0.022 µM | 0.013 µM |  |  |  |  | CC(C)C1=CN(CCC(=O)O)C(=O)N[C@@]1(C)c1ccc(CCC(C)(C)C)c(F)c1 [Example 176]
 |  | 0.022 µM | 0.018 µM |  |  | CC(C)C1=CN(CCC(=O)O)C(=O)N[C@@]1(C)c1ccc(C2CC(C)(C)C2)c(Cl)c1 [Example 298]
 |  | 0.018 µM | 0.012 µM |  |  | CC(C)CCOc1c(F)cc([C@]2(C)NC(=O)N(CCC(=O)O)C=C2C(C)C)cc1Cl [Example 195]
 |  | 0.022 µM | 0.022 µM |  |  | CC(C)C1=CN([C@H]2CC[C@H](CC(=O)O)CC2)C(=O)N[C@@]1(C)c1ccc(CCC(C)(C)C)c(Cl)c1 [Example 262]
 |  | 0.715 µM | 0.666 µM |  |  | CC(C)C1=CN(C2CNCC2C(=O)O)C(=O)N[C@@]1(C)c1ccc(CCC(C)(C)C)c(Cl)c1 (single isomer, unassigned) [Example 238]
 |  | 0.023 µM | 0.027 µM |  |  | CC(C)(C)CCc1ccc([C@]2(C)NC(=O)N(c3ccc(C(=O)O)cn3)C=C2C2CC(F)(F)C2)cc1Cl [Example 320]
0.009 µM | 0.012 µM |  |  |  |  | CC(C)C1=CN(CCC(=O)O)C(=O)N[C@@]1(C)c1cc(F)c(CCC(C)(C)C)c(Cl)c1 [Example 175]
 |  | 0.123 µM | 0.043 µM |  |  | COCCC1=CN(C23CC(C(=O)O)(C2)C3)C(=O)N[C@@]1(C)c1ccc(CCC(C)(C)C)c(C(F)(F)F)c1 [Example 340]
 |  | 1.49 µM | 0.917 µM |  |  | CC(C)C1=CN(CCC(=O)O)C(=O)N[C@@]1(C)c1ccc(C=C2CCC2)c(Cl)c1 [Example 288]
 |  | 0.013 µM | 0.014 µM |  |  | CC(C)(C)CCc1ccc([C@]2(C)NC(=O)N(CCC(=O)O)C=C2C2CC(F)(F)C2)cc1Cl [Example 319]
 |  | 0.036 µM | 0.034 µM |  |  | CC(C)(C)CCc1ccc([C@]2(C)NC(=O)N(C3CC(C)(C)C3)C=C2[C@H]2C[C@H](C(=O)O)C2)cc1Cl (single isomer, unassigned) [Example 287]
